Laboratory results taken from the supplement of paper PMC4862054.
Values joined by “and” are separate entries in the source; they are usually repeats but may differ in a detail not shown here. Equal entries are not always repeated.

system: CAL-85-1; experiment: drug sensitivity score (DSS), CellTiter-Blue viability (DSS (AUC-based score)); higher = stronger viability inhibition; extreme values may be limits of the assay; conditions: incubation time: 72 h
Summary of the method: (§1)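 Cells from breast cancer lines were grown with compound for 72 h in 384-well plates, using a 5- or 9-concentration series. CellTiter-Blue fluorescence (560/590 nm) served as the viability readout, normalised plate by plate to 0.1 % DMSO and a positive kill control. A drug sensitivity score was computed as the area under the fitted dose-response curve.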

Row | Structure (SMILES) | drug sensitivity score
1 | COc1cc2/c(=N/c3ccc(Br)cc3F)nc[nH]c2cc1OCC1CCN(C)CC1 [Vandetanib] | 6.73

system: MDA-MB-453; experiment: as above; conditions: incubation time: 72 h
Summary of the method: as §1

Row | Structure (SMILES) | drug sensitivity score
2 | Cc1cc(Nc2cc(CN3CCOCC3)c3nc(C)c(Cc4ccc(Cl)cc4F)n3n2)n[nH]1 | 10.2
3 | N#Cc1ccc(COC[C@H]2O[C@@H](n3c(NCc4ccc(Cl)c(Cl)c4)nc4c(N)ncnc43)[C@H](O)[C@@H]2O)cc1 | 0
4 | COc1cc(OC2CCN(C)CC2)ccc1Nc1ncc2c(n1)n(C1CCCC1)c(=O)n2C [AZ 3146] | 3.31
5 | CN(C)c1nc(N(C)C)nc(N(C)C)n1 [Altretamine] | 2.05
6 | COC(=O)c1ccc2c(c1)NC(=O)/C2=C(\Nc1ccc(N(C)C(=O)CN2CCN(C)CC2)cc1)c1ccccc1 [BIBF 1120] | 5.53
7 | Nc1cc(C(F)(F)F)c(-c2cc(N3CCOCC3)nc(N3CCOCC3)n2)cn1 [BKM-120] | 13.8
8 | O=C(/C=C/c1cccc(S(=O)(=O)Nc2ccccc2)c1)NO [Belinostat] | 22.4
9 | O=P1(N(CCCl)CCCl)NCCCO1 (stereo unspecified) [Cyclophosphamide] | 0
10 | C=C1C[C@@H]2[C@H](CC[C@]3(C)C(=O)CC[C@@H]23)[C@@]2(C)C=CC(=O)C=C12 [Exemestane] | 1.5
11 | COc1cc2ncnc(Nc3ccc(F)c(Cl)c3)c2cc1OCCCN1CCOCC1 [Gefitinib] | 3.14 and 5.26
12 | O=C(Nc1ccncc1)C(=O)c1cn(Cc2ccc(Cl)cc2)c2ccccc12 [Indibulin] | 18
13 | NC(=O)c1ccc(I)c([N+](=O)[O-])c1 [Iniparib] | 0
14 | Oc1ccc2c(c1)CC[C@H](c1ccccc1)[C@@H]2c1ccc(OCCN2CCCC2)cc1 [Lasofoxifene] | 0
15 | Cc1ccc(NC(=O)c2ccc(CN3CCN(C)CC3)cc2)cc1Nc1nc(-c2cccnc2)cs1 [Masitinib] | 4.09
16 | O=C(Nc1cccnc1)N1CCC(Cc2cccc(Oc3ccc(C(F)(F)F)cn3)c2)CC1 [PF-3845] | 4.35
17 | COCC1(CO)C(=O)C2CCN1CC2 (stereo unspecified) [Prima-1 Met] | 0
18 | CNC(=O)c1cc(Oc2ccc(NC(=O)Nc3ccc(Cl)c(C(F)(F)F)c3)c(F)c2)ccn1 [Regorafenib] | 5.4
19 | c1ccc2c(CCNc3ccc(Nc4ccncc4)cc3)c[nH]c2c1 [Serdemetan] | 3.89
20 | S=P(N1CC1)(N1CC1)N1CC1 [Thio-TEPA] | 0
21 | CN(C)CCOc1ccc(/C(=C(/CCCl)c2ccccc2)c2ccccc2)cc1 [Toremifene] | 1.86
22 | CC(C)C[C@@H](C(=O)N[C@H](C(=O)OC1CCCC1)c1ccccc1)[C@H](O)C(=O)NO [Tosedostat] | 15.8
23 | COc1cc2/c(=N/c3ccc(Br)cc3F)nc[nH]c2cc1OCC1CCN(C)CC1 [Vandetanib] | 3.82

system: HDQ-P1; experiment: normalised viability (% of control), CellTiter-Blue; higher = more viable cells (about 100 = DMSO control); conditions: incubation time: 72 h
Description: (§2)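 DSRT, CellTiter-Blue viability, 72 h incubation. Signal is normalised to DMSO and benzethonium chloride controls. Value is the normalised response at dose 9.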

Row | Structure (SMILES) | normalised viability
24 | O=C(Nc1cccnc1)N1CCC(Cc2cccc(Oc3ccc(C(F)(F)F)cn3)c2)CC1 [PF-3845] (10000 nM) | 128%
25 | Cc1[nH]c2ccccc2c1CCNCc1ccc(/C=C/C(=O)NO)cc1 [Panobinostat] (1000 nM) | 15%
26 | COCC1(CO)C(=O)C2CCN1CC2 (stereo unspecified) [Prima-1 Met] (10000 nM) | 103%
27 | CNC(=O)c1cc(Oc2ccc(NC(=O)Nc3ccc(Cl)c(C(F)(F)F)c3)c(F)c2)ccn1 [Regorafenib] (10000 nM) | 92.9%
28 | c1ccc2c(CCNc3ccc(Nc4ccncc4)cc3)c[nH]c2c1 [Serdemetan] (10000 nM) | 56.6%
29 | CN(C)CCOc1ccc(/C(=C(/CCCl)c2ccccc2)c2ccccc2)cc1 [Toremifene] (10000 nM) | 108%
30 | CC(C)C[C@@H](C(=O)N[C@H](C(=O)OC1CCCC1)c1ccccc1)[C@H](O)C(=O)NO [Tosedostat] (10000 nM) | 76.5%
31 | COCC[n+]1c2c(n(Cc3cnccn3)c1C)C(=O)c1ccccc1C2=O [YM155] (10000 nM) | 0.66%

system: CAL-85-1; experiment: as above; conditions: incubation time: 72 h
Description: as §2

Row | Structure (SMILES) | normalised viability
32 | O=C(Nc1cccnc1)N1CCC(Cc2cccc(Oc3ccc(C(F)(F)F)cn3)c2)CC1 [PF-3845] (10000 nM) | 93.4%
33 | Cc1[nH]c2ccccc2c1CCNCc1ccc(/C=C/C(=O)NO)cc1 [Panobinostat] (1000 nM) | 4.25%
34 | COCC1(CO)C(=O)C2CCN1CC2 (stereo unspecified) [Prima-1 Met] (10000 nM) | 98.3%
35 | CNC(=O)c1cc(Oc2ccc(NC(=O)Nc3ccc(Cl)c(C(F)(F)F)c3)c(F)c2)ccn1 [Regorafenib] (10000 nM) | 76.7%
36 | c1ccc2c(CCNc3ccc(Nc4ccncc4)cc3)c[nH]c2c1 [Serdemetan] (10000 nM) | 55.1%
37 | CN(C)CCOc1ccc(/C(=C(/CCCl)c2ccccc2)c2ccccc2)cc1 [Toremifene] (10000 nM) | 83.6%
38 | CC(C)C[C@@H](C(=O)N[C@H](C(=O)OC1CCCC1)c1ccccc1)[C@H](O)C(=O)NO [Tosedostat] (10000 nM) | 49.5%
39 | COCC[n+]1c2c(n(Cc3cnccn3)c1C)C(=O)c1ccccc1C2=O [YM155] (10000 nM) | 2.71%

system: CAL-148; experiment: as above; conditions: incubation time: 72 h
Description: as §2

Row | Structure (SMILES) | normalised viability
40 | O=C(Nc1cccnc1)N1CCC(Cc2cccc(Oc3ccc(C(F)(F)F)cn3)c2)CC1 [PF-3845] (10000 nM) | 98.2%
41 | Cc1[nH]c2ccccc2c1CCNCc1ccc(/C=C/C(=O)NO)cc1 [Panobinostat] (1000 nM) | 0.37%
42 | COCC1(CO)C(=O)C2CCN1CC2 (stereo unspecified) [Prima-1 Met] (10000 nM) | 80.7%
43 | CNC(=O)c1cc(Oc2ccc(NC(=O)Nc3ccc(Cl)c(C(F)(F)F)c3)c(F)c2)ccn1 [Regorafenib] (10000 nM) | 81.7%
44 | c1ccc2c(CCNc3ccc(Nc4ccncc4)cc3)c[nH]c2c1 [Serdemetan] (10000 nM) | 55.8%
45 | CN(C)CCOc1ccc(/C(=C(/CCCl)c2ccccc2)c2ccccc2)cc1 [Toremifene] (10000 nM) | 104%
46 | CC(C)C[C@@H](C(=O)N[C@H](C(=O)OC1CCCC1)c1ccccc1)[C@H](O)C(=O)NO [Tosedostat] (10000 nM) | 23.2%
47 | COCC[n+]1c2c(n(Cc3cnccn3)c1C)C(=O)c1ccccc1C2=O [YM155] (10000 nM) | 2.13%

system: MDA-MB-453; experiment: as above; conditions: incubation time: 72 h
Description: as §2

Row | Structure (SMILES) | normalised viability
48 | O=C(Nc1cccnc1)N1CCC(Cc2cccc(Oc3ccc(C(F)(F)F)cn3)c2)CC1 [PF-3845] (10000 nM) | 38.4%
49 | Cc1[nH]c2ccccc2c1CCNCc1ccc(/C=C/C(=O)NO)cc1 [Panobinostat] (1000 nM) | 1.09%
50 | COCC1(CO)C(=O)C2CCN1CC2 (stereo unspecified) [Prima-1 Met] (10000 nM) | 89.4%
51 | CNC(=O)c1cc(Oc2ccc(NC(=O)Nc3ccc(Cl)c(C(F)(F)F)c3)c(F)c2)ccn1 [Regorafenib] (10000 nM) | 22%
52 | c1ccc2c(CCNc3ccc(Nc4ccncc4)cc3)c[nH]c2c1 [Serdemetan] (10000 nM) | 39.4%
53 | CN(C)CCOc1ccc(/C(=C(/CCCl)c2ccccc2)c2ccccc2)cc1 [Toremifene] (10000 nM) | 26.5%
54 | CC(C)C[C@@H](C(=O)N[C@H](C(=O)OC1CCCC1)c1ccccc1)[C@H](O)C(=O)NO [Tosedostat] (10000 nM) | 18.8%
55 | COCC[n+]1c2c(n(Cc3cnccn3)c1C)C(=O)c1ccccc1C2=O [YM155] (10000 nM) | 2%

system: CAL-51; experiment: as above; conditions: incubation time: 72 h
Description: as §2

Row | Structure (SMILES) | normalised viability
56 | O=C(Nc1cccnc1)N1CCC(Cc2cccc(Oc3ccc(C(F)(F)F)cn3)c2)CC1 [PF-3845] (10000 nM) | 65.5%
57 | Cc1[nH]c2ccccc2c1CCNCc1ccc(/C=C/C(=O)NO)cc1 [Panobinostat] (1000 nM) | 1.29%
58 | COCC1(CO)C(=O)C2CCN1CC2 (stereo unspecified) [Prima-1 Met] (10000 nM) | 99.7%
59 | CNC(=O)c1cc(Oc2ccc(NC(=O)Nc3ccc(Cl)c(C(F)(F)F)c3)c(F)c2)ccn1 [Regorafenib] (10000 nM) | 48.2%
60 | c1ccc2c(CCNc3ccc(Nc4ccncc4)cc3)c[nH]c2c1 [Serdemetan] (10000 nM) | 57%
61 | CN(C)CCOc1ccc(/C(=C(/CCCl)c2ccccc2)c2ccccc2)cc1 [Toremifene] (10000 nM) | 105%
62 | CC(C)C[C@@H](C(=O)N[C@H](C(=O)OC1CCCC1)c1ccccc1)[C@H](O)C(=O)NO [Tosedostat] (10000 nM) | 33.6%
63 | COCC[n+]1c2c(n(Cc3cnccn3)c1C)C(=O)c1ccccc1C2=O [YM155] (10000 nM) | 1.83%

system: DU-4475; experiment: as above; conditions: incubation time: 72 h
Description: as §2

Row | Structure (SMILES) | normalised viability
64 | O=C(Nc1cccnc1)N1CCC(Cc2cccc(Oc3ccc(C(F)(F)F)cn3)c2)CC1 [PF-3845] (10000 nM) | 108%
65 | Cc1[nH]c2ccccc2c1CCNCc1ccc(/C=C/C(=O)NO)cc1 [Panobinostat] (1000 nM) | 4.66%
66 | COCC1(CO)C(=O)C2CCN1CC2 (stereo unspecified) [Prima-1 Met] (10000 nM) | 125%
67 | CNC(=O)c1cc(Oc2ccc(NC(=O)Nc3ccc(Cl)c(C(F)(F)F)c3)c(F)c2)ccn1 [Regorafenib] (10000 nM) | 39.3%
68 | c1ccc2c(CCNc3ccc(Nc4ccncc4)cc3)c[nH]c2c1 [Serdemetan] (10000 nM) | -0.82%
69 | CN(C)CCOc1ccc(/C(=C(/CCCl)c2ccccc2)c2ccccc2)cc1 [Toremifene] (10000 nM) | 94.5%
70 | CC(C)C[C@@H](C(=O)N[C@H](C(=O)OC1CCCC1)c1ccccc1)[C@H](O)C(=O)NO [Tosedostat] (10000 nM) | 35.2%
71 | COCC[n+]1c2c(n(Cc3cnccn3)c1C)C(=O)c1ccccc1C2=O [YM155] (10000 nM) | 0.83%
